In patent US10947188B2, “Small molecule ferroptosis inducers” (THE TRUSTEES OF COLUMBIA UNIVERSITY IN THE CITY OF NEW YORK, priority 2016, dated 2021):
Where a SMILES comes first, the peptide text is derived from it. The star is where a group is joined. Cbz = O=C(OCc1ccccc1)*

Test system: BJeLR
Test: Modulatory profiling: Alamar Blue viability, lethal compound cotreated with death modulator (EC50, AUC)
Format: cell-based, human
Design: AUC, modulator BJ.Gd3+ / AUC, modulator BJ.LNAME / AUC, modulator BJ.Lmin / AUC, modulator BJ.3MA / AUC, modulator BJ.ALLN / AUC, modulator BJ.Boc D / AUC, modulator BJ.CHX / AUC, modulator BJ.Co2+ / AUC, modulator BJ.Nec-1 / AUC, modulator BJ.Pepstatin / AUC, modulator BJ.TLCK / AUC, modulator BJ.atoc / AUC, modulator BJ.trolox / AUC, modulator BJ.zVAD: unit not given beside the values
Settings: BJeLR cells, modulatory profile value (AUC); for AUC, modulator BJ.3MA: lethal compound cotreated with modulator 3MA; for AUC, modulator BJ.ALLN: lethal compound cotreated with modulator ALLN; for AUC, modulator BJ.Boc D: lethal compound cotreated with modulator Boc D; for AUC, modulator BJ.CHX: lethal compound cotreated with modulator CHX; for AUC, modulator BJ.Co2+: lethal compound cotreated with modulator Co2+; for AUC, modulator BJ.DPQ: lethal compound cotreated with modulator DPQ; for AUC, modulator BJ.Gd3+: lethal compound cotreated with modulator Gd3+; for AUC, modulator BJ.LNAME: lethal compound cotreated with modulator LNAME; for AUC, modulator BJ.Lmin/NAD+: lethal compound cotreated with modulator Lmin/NAD+; for AUC, modulator BJ.Lmin: lethal compound cotreated with modulator Lmin; for AUC, modulator BJ.NAD+: lethal compound cotreated with modulator NAD+; for AUC, modulator BJ.NMMA: lethal compound cotreated with modulator NMMA; for AUC, modulator BJ.Nec-1: lethal compound cotreated with modulator Nec-1; for AUC, modulator BJ.Pepstatin: lethal compound cotreated with modulator Pepstatin; for AUC, modulator BJ.TLCK: lethal compound cotreated with modulator TLCK; for AUC, modulator BJ.atoc: lethal compound cotreated with modulator atoc; for AUC, modulator BJ.trolox: lethal compound cotreated with modulator trolox; for AUC, modulator BJ.zVAD: lethal compound cotreated with modulator zVAD

Compound	AUC, modulator BJ.3MA	AUC, modulator BJ.ALLN	AUC, modulator BJ.Boc D	AUC, modulator BJ.CHX	AUC, modulator BJ.Co2+	AUC, modulator BJ.DPQ	AUC, modulator BJ.Gd3+	AUC, modulator BJ.LNAME	AUC, modulator BJ.Lmin/NAD+	AUC, modulator BJ.Lmin	AUC, modulator BJ.NAD+	AUC, modulator BJ.NMMA	AUC, modulator BJ.Nec-1	AUC, modulator BJ.Pepstatin	AUC, modulator BJ.TLCK	AUC, modulator BJ.atoc	AUC, modulator BJ.trolox	AUC, modulator BJ.zVAD
CC(C)C[C@@H](C=O)NC(=O)[C@H](CC(C)C)NC(=O)[C@H](CC(C)C)NC(=O)OCc1ccccc1 [MG132, reference compound] (Cbz-Leu-Leu-Leu-aldehyde)	−0.04346	−0.2701	0.04216	0.2476	0.1849	−0.01327	0.03163	0.01789	0.2064	0.1487	0.04274	0.02073	−0.0504	−0.02291	0.1241	−0.002326	−0.01449	−0.08452
Nc1ccccc1NC(=O)c1ccc(CNC(=O)OCc2cccnc2)cc1 [MS275]	−0.02606	−0.03932	0.08944	0.2266	0.2326	−0.009656	0.023	0.02321	0.1569	−0.001183	0.1269	−0.003779	−0.01329	−0.01824	0.08474	−0.008452	−0.001137	0.1415
O=C1c2c(O)ccc(O)c2C(=O)c2c(NCCNCCO)ccc(NCCNCCO)c21 [Mitoxantrone]	0.03352	0.06204	0.03746	0.1437	0.4538	−0.05814	0.01069	0.007578	0.1162	0.04368	0.08733	0.004431	−0.03038	0.003263	0.02288	0.02585	−0.01862	0.0497
COc1cc([C@@H]2c3cc4c(cc3[C@H](O)[C@H]3COC(=O)[C@H]23)OCO4)cc(OC)c1OC [Podophyllotoxin]	−0.01267	−0.003673	0.003542	0.1228	0.09497	−0.03896	0.01784	0.005868	0.1012	0.05457	0.09627	−0.007043	−0.04167	0.02214	−0.02042	0.007072	−0.01282	0.0496
COC(=O)c1ccc([C@@H]2c3[nH]c4ccccc4c3C[C@@H](C(=O)OC)N2C(=O)CCl)cc1 [RSL3, reference compound]	0.09104	0.01266	0.03832	0.1841	0.1091	0.03115	0.02448	0.02932	0.3858	0.3462	0.04136	0.007806	0.2379	−0.0008093	0.2732	0.3601	0.3731	0.00586
C=C(C)[C@H]1Cc2c(ccc3c2O[C@@H]2COc4cc(OC)c(OC)cc4[C@@H]2C3=O)O1 [Rotenone]	−0.0266	−0.03435	−0.01674	0.1066	0.0838	−0.02278	0.01421	−0.01131	0.1439	0.06492	0.1037	0.005801	−0.02888	0.02007	−0.02169	0.05116	−0.01075	0.04408
O=C(CCCCCN1C(=O)c2cccc3cccc(c23)C1=O)NO [Scriptaid]	−0.0206	−0.07856	0.03167	0.2681	0.2406	0.004892	0.0289	0.03611	0.2114	0.1113	0.1384	0.02102	0.02804	−0.0282	0.07545	−0.005396	−0.0185	0.1205
CC(C)[C@@H]1NC(=O)[C@H](C)OC(=O)[C@@H](C(C)C)NC(=O)[C@@H](C(C)C)OC(=O)[C@H](C(C)C)NC(=O)[C@H](C)OC(=O)[C@@H](C(C)C)NC(=O)[C@@H](C(C)C)OC(=O)[C@H](C(C)C)NC(=O)[C@H](C)OC(=O)[C@@H](C(C)C)NC(=O)[C@@H](C(C)C)OC1=O [Vatinomycin]	0.03326	0.02063	0.02046	0.3573	0.09595	−0.02201	−0.0004394	−0.01323	0.1525	−0.007847	0.1101	−0.02634	0.01734	0.04946	0.006602	0.285	0.06867	0.03769
CC[C@]1(O)C[C@@H]2CN(CCc3c([nH]c4ccccc34)[C@@](C(=O)OC)(c3cc4c(cc3OC)N(C)[C@H]3[C@@](O)(C(=O)OC)[C@H](OC(C)=O)[C@]5(CC)C=CCN6CC[C@]43[C@@H]65)C2)C1 [Vinbiastine]	0.0131	−0.07228	0.001717	0.2328	0.1876	−0.0312	0.008351	−0.0006349	0.1715	0.06584	0.1373	0.008107	−0.06176	0.002398	−0.003672	0.1487	−0.01145	0.01552
